Among the data in ChEMBL document CHEMBL1142612, “A meroterpenoid NF-kappaB inhibitor and drimane sesquiterpenoids from Asafetida” (J Nat Prod, 2006) are Activity and IC50 values, retold here.

For test [1], the system named is Jurkat. Put plainly: Cytotoxicity against human cloned Jurkat 5.1 cells using propidium iodide staining by flow cytometry. The test is classed as functional, cell-based.
The nature of test [2]: Inhibition of NF-kappaB in TNF-alpha-stimulated human cloned Jurkat 5.1 cells cotransfected with HIV1-LTR promoter preincubated for 30 mins before TNFalpha challenge after 6 hrs by luciferase reporter gene assay. The test is classed as cell-based.
Test [3] deals with HeLa. The experiment in a line: Cytotoxicity against human HeLa cells using propidium iodide staining by flow cytometry. The test is classed as functional, cell-based.
In test [4] the test system is A549. Put plainly: Inhibition of NF-kappaB in TNF-alpha-stimulated human A549 cells cotransfected with KBF-luciferase gene preincubated for 30 mins before TNFalpha challenge after 6 hrs by luciferase reporter gene assay. Type of test: cell-based.
The subject of test [5] is A549. The experiment in a line: Cytotoxicity against human A549 cells using propidium iodide staining by flow cytometry. The test is classed as functional, cell-based.

pIC50: −log10 of the molar value. The source made the active and inactive calls. The calls are words filed in the database; no cut-off is given here.

`CC(=O)OC(CC=C(C)C)/C(C)=C/C(O)C/C(C)=C/COc1ccc2ccc(=O)oc2c1` (configuration not stated): the outcome in test [1], in test [3] and in test [5] was inactive. The same molecule showed a pIC50 in test [2] of 4.82. Further, the Activity result in test [4] is “Dose-dependent effect”.

Consider `CC(C)=CCC(O)/C(C)=C/C(O)C/C(C)=C/COc1ccc2ccc(=O)oc2c1` (configuration not stated), for which the pIC50 in test [2] is 4.43.

In test [2], `CC1=CC(=O)C2=C(C)CC3OC(=O)C(C)=C3C=C12` (configuration not stated) [TARAXACIN] showed a pIC50 of 4.24.
